Results from article PMC5874533 (Scientia Pharmaceutica, 2018).
Like-named read-outs stand apart in the source and are kept apart here.

What was measured:
P-glycoprotein (P-gp) = P-glycoprotein (P-gp) (Homo sapiens, UniProt P08183)
Procedure: Transport studies. Caco-2 monolayers were rinsed twice with KRB to remove the cell culture medium. Fresh KRB (pH 7.4) was filled into the acceptor compartment and the transport solution (test substance in KRB at pH 7.4) into the donor compartment. The cells were equilibrated for 30 min in a CO2 incubator at 37 °C and stayed there between the sample collection points. After pre-incubation, samples were taken from the donor and acceptor compartment, respectively. The concentration of test compound in the donor compartment was defined as initial donor concentration. At 0 min, 30 min, 60 min, 90 min and 120 min 100 µL samples were drawn from the acceptor compartment. The amount of solution removed was replaced by fresh, pre-warmed KRB. At the final pull point, samples were retrieved from the donor compartment, too. All tests were carried out in triplicate. For studies including the P-glycoprotein (P-gp) inhibitor cyclosporin A and the marker compound for P-gp transport inhibitors, [^3H]-digoxin the substances were applied to both the donor and acceptor compartment in the same concentration. […]
[^3H]-propranolol and [^3H]-digoxin were quantified by liquid scintillation counting. […] After an equilibration period of at least 1 h radiation was measured for 2 min per well in a scintillation counter. The recorded counts in a blank sample were subtracted from the value of each test sample.
Data of the permeability study were calculated using MS Excel (Microsoft, Redmond, WA, USA). Apparent permeability coefficient (Papp) was calculated according to the following equation: Papp=ΔQ 1 1/Δt m0 A VD(cm·s^−1) where ΔQ/Δt is the permeability rate (steady state transport rate) obtained from the profile of the transported mass or radioactivity of substrate versus time (µg or dpm·s^−1). Calculated by the linear regression of time and concentration. A is the area of the exposed cell monolayer (cm^2), m0 is the initial mass or radioactivity of test compound in the donor compartment (µg or dpm), and VD is the buffer volume of donor compartment. […]

[1] = Caco-2 monolayer transport (permeability) study; assay type: in vitro ADME, human; settings: human
Procedure: (§1) Cell culture. For the maintenance culture, Caco-2 cells were incubated at 37 °C, 5% CO2, and 90% relative humidity in 75 cm^2 culture flasks with supplemented Dulbecco's Modified Eagle's Medium (DMEM). The cells were passaged once a week using trypsin/ethylenediaminetetraacetic acid (EDTA) solution. Approximately 10^6 cells were seeded per flask. The culture medium was changed three times a week. For the transport studies, the Caco-2 cells were inoculated at a density of 60,000 cells/cm^2 on Transwell filter inserts and placed into 12-well flat-bottom cluster plates. The inserts (apical compartments) were supplied with 0.5 mL and the outer wells (basal compartments) with 1.5 mL of DMEM culture medium. The cells for the present transport study were cultured at 37 °C, 5% CO2 and 90% relative humidity in DMEM culture medium for 18 days until they formed confluent monolayers (31 passages). The culture medium was replaced every 2-3 days. […] Transport studies. […] All tests were carried out in triplicate. […] Testing of integrity of monolayers. Each batch of monolayer Caco-2 cells was inoculated and cultured under the same conditions on Transwell filter inserts in parallel. Qualification of intactness of the Caco-2 monolayer batches prior to the transport studies was carried out in triplicate for each transport condition using the selected transport markers fluorescein, [^3H]-propranolol and rhodamine 123. […] Mobile phase A consisted of 0.1% formic acid in water and mobile phase B of 0.1% formic acid in acetonitrile. […] The samples were kept at 10 °C and injected at a volume of 20 μL. The triple quad mass spectrometer system (Waters) was used in the positive (ESI^+) electrospray mode at 2.63 kV. […] Fluorescein and rhodamine 123 samples (100 μL) were determined by fluorescence reading. The samples were collected in 96 well microtiter plates. The fluorescence intensity was recorded by exciting the sample with light at 485 nm and measuring the emitted fluorescence at 535 nm. The fluorescence emission of a blank sample (Krebs-Ringer bicarbonate buffer (KRB) solution) was used as baseline.

[2] = Solubility study in buffer solutions pH 1.2-7.5 (shake flask, HPLC); assay type: physicochemical; settings: for solubility at 48 h: hydrochloric acid/sodium chloride buffer pH 1.2, 37 °C, pH 1.2, 37 °C
Procedure: Solubility was investigated in four different buffer systems at two temperatures each.
Preparation of buffer solutions:
pH 1.2: 425.0 mL of 0.2 M hydrochloric acid solution, and 250.0 mL 0.2 M sodium chloride solution diluted to 1000 mL with water;
pH 6.8: 250.0 mL of 0.2 M monobasic potassium phosphate solution, 112.0 mL of 0.1 M sodium hydroxide solution diluted to 1000 mL with water;
pH 7.5: 250.0 mL of 0.2 M monobasic potassium phosphate solution, 112.0 mL of 0.1 M sodium hydroxide solution diluted to 1000 mL with water and adjusted to pH 7.5 with 0.1 M sodium hydroxide solution and.
Flow rate of the mobile phase: 0.5 mL min^−1 and a column temperature of 30 °C. The samples were injected at a volume of 10 µL with detection at wavelength 225 nm.
Preparation of the final test solution: Following stirring, the flask was allowed to deposit the excess amount of substance for 5 min. Thereafter, 1.0 mL of the supernatant was transferred into a 50 mL volumetric flask, dissolved in mobile phase, and adjusted to 50.0 mL with the same solvent. For the study at 25 °C, 5.0 mL of this solution was diluted to 20.0 mL with mobile phase. For the study at 37 °C, 5.0 mL of the solution was diluted to 50.0 mL with mobile phase.
10.0 mL of this solution was dissolved to 100.0 mL with mobile phase.

Caco-2 cell monolayers = assay: Caco-2 monolayer transport (permeability) study; assay type: in vitro ADME, human; settings: Caco-2, 10–100 μM
Procedure: as §1

Caco-2 cells = assay: Tolerability of enisamium iodide to Caco-2 cells (TEER); assay type: cell-based, human
Procedure: For this purpose, the cells were incubated with the highest dose supposed for the permeability studies (100 μM). After an incubation period of 120 min at 37 °C the TEER was checked to assess the integrity of the cell monolayers. […] All experiments were performed in triplicate. As a positive control, sodium dodecyl sulfate was used in this experiment.
The TEER was calculated according to TEER= Rc(A)=(Rc+f−Rf)A (Ω·cm^2). where Rc(A) is the electrical resistance of the monolayer with the area A (Ω cm^2); Rc+f is the electrical resistance of the monolayer including the filter (Ω); Rf is the electrical resistance of the filter without cells (Ω); and A is the area of the monolayer (cm^2).

[3] = Caco-2, pH 7.4, Caco-2, monolayer qualification marker, read-out: Papp (AB)

Chain of P-glycoprotein (P-gp) (P08183 whole entry): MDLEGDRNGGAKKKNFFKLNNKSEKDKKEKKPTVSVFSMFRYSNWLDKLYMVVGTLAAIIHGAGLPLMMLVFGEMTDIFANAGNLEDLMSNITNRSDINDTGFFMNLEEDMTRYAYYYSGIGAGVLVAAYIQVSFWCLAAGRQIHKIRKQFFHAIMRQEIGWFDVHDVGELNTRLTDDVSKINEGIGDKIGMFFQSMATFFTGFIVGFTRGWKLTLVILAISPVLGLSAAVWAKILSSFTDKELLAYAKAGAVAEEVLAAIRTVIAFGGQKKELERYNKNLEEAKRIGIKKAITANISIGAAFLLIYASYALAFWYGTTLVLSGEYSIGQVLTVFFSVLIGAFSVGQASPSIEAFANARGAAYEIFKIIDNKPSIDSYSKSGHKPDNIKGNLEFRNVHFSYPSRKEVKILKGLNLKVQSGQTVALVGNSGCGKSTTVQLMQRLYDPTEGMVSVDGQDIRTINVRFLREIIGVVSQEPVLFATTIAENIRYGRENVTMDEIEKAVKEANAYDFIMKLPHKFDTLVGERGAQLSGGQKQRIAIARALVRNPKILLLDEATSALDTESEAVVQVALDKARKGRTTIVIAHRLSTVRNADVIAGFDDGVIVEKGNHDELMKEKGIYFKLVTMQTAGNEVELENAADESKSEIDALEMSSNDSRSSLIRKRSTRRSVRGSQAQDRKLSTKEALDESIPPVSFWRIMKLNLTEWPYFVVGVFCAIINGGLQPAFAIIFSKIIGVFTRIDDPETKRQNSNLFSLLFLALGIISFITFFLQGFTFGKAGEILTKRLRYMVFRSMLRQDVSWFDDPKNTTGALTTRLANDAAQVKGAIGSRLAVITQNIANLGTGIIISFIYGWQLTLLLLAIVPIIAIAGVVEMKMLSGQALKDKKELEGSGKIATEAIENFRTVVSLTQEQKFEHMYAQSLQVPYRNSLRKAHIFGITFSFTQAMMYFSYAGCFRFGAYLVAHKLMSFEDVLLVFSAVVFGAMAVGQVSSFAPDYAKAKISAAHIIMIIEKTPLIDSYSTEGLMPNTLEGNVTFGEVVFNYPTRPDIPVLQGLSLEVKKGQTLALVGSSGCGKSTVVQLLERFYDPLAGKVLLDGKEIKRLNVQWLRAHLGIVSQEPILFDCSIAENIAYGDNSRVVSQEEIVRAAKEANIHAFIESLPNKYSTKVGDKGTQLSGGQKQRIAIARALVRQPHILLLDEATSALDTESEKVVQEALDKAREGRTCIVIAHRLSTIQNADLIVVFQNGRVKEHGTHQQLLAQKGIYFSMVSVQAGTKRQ

C[C@H]1O[C@@H](O[C@H]2[C@@H](O)C[C@H](O[C@H]3[C@@H](O)C[C@H](O[C@H]4CC[C@@]5(C)[C@H](CC[C@@H]6[C@@H]5C[C@@H](O)[C@]5(C)[C@@H](C7=CC(=O)OC7)CC[C@]65O)C4)O[C@@H]3C)O[C@@H]2C)C[C@H](O)[C@@H]1O [[^3H]-digoxin, reference compound]
Bi-directional transport in presence of enisamium iodide (P-glycoprotein (P-gp); [^3H]-digoxin 1 μmol·L^−1, enisamium iodide 10 μmol·L^−1, Caco-2): transported much more in the ba direction as compared to the ab

O=C1OC2(c3ccc(O)cc3Oc3cc(O)ccc32)c2ccccc21 [fluorescein, reference compound]
Papp A→B at 120 min [1, 3]: 0.18 ×10⁻⁶ cm/s

C[n+]1ccc(C(=O)NCc2ccccc2)cc1.[I-] [enisamium iodide, 4-(benzylcarbamoyl)-1-methylpyridinium iodide]
Solubility classification according to the BCS [2]: highly soluble | Amount that can be dissolved in 250 mL of buffer solution ([2]; 37 °C): at least 31.8 g | solubility at 96 h ([2]; four buffer solutions (pH 1.2, 4.5, 6.8, 7.5), 25 °C, pH 1.2, aqueous buffer, thermodynamic from solid, four buffer solutions from pH 1.2 to 7.5, 25 °C): ~60 mg/mL | solubility ([2]; four buffer solutions (pH 1.2, 4.5, 6.8, 7.5), 37 °C, pH 1.2, aqueous buffer, thermodynamic from solid, four buffer solutions from pH 1.2 to 7.5, 37 °C, depending on the pH): 130 to 150 mg/mL | solubility at 96 h ([2]; hydrochloric acid/sodium chloride buffer pH 1.2, 25 °C, pH 1.2, simulated gastric fluid, thermodynamic from solid, pH 1.2, 25 °C, batch 170215): 63.2 mg/mL | solubility at 96 h ([2]; hydrochloric acid/sodium chloride buffer pH 1.2, 25 °C, pH 1.2, simulated gastric fluid, thermodynamic from solid, pH 1.2, 25 °C, batch 180215): 63.5 mg/mL | solubility at 96 h ([2]; hydrochloric acid/sodium chloride buffer pH 1.2, 25 °C, pH 1.2, simulated gastric fluid, thermodynamic from solid, pH 1.2, 25 °C, batch 190315): 63.2 mg/mL | solubility at 96 h ([2]; hydrochloric acid/sodium chloride buffer pH 1.2, 25 °C, pH 1.2, simulated gastric fluid, thermodynamic from solid, pH 1.2, 25 °C, mean of three batches): 63.3 mg/mL | solubility at 48 h ([2]; pH 1.2, simulated gastric fluid, thermodynamic from solid, batch 170215): 152 mg/mL | solubility at 48 h ([2]; pH 1.2, simulated gastric fluid, thermodynamic from solid, batch 180215): 155 mg/mL | solubility at 48 h ([2]; pH 1.2, simulated gastric fluid, thermodynamic from solid, batch 190315): 155 mg/mL | solubility at 48 h ([2]; pH 1.2, simulated gastric fluid, thermodynamic from solid, mean of three batches): 154 mg/mL | solubility at 96 h ([2]; potassium phosphate buffer pH 6.8, 25 °C, pH 6.8, aqueous buffer, thermodynamic from solid, pH 6.8, 25 °C, batch 170215): 60.8 mg/mL | solubility at 96 h ([2]; potassium phosphate buffer pH 6.8, 25 °C, pH 6.8, aqueous buffer, thermodynamic from solid, pH 6.8, 25 °C, batch 180215): 59.5 mg/mL | solubility at 96 h ([2]; potassium phosphate buffer pH 6.8, 25 °C, pH 6.8, aqueous buffer, thermodynamic from solid, pH 6.8, 25 °C, batch 190315): 60.2 mg/mL | solubility at 96 h ([2]; potassium phosphate buffer pH 6.8, 25 °C, pH 6.8, aqueous buffer, thermodynamic from solid, pH 6.8, 25 °C, mean of three batches): 60.2 mg/mL | solubility at 96 h ([2]; potassium phosphate buffer pH 6.8, 37 °C, pH 6.8, aqueous buffer, thermodynamic from solid, pH 6.8, 37 °C, batch 170215): 131 mg/mL | solubility at 96 h ([2]; potassium phosphate buffer pH 6.8, 37 °C, pH 6.8, aqueous buffer, thermodynamic from solid, pH 6.8, 37 °C, batch 180215): 128 mg/mL | solubility at 96 h ([2]; potassium phosphate buffer pH 6.8, 37 °C, pH 6.8, aqueous buffer, thermodynamic from solid, pH 6.8, 37 °C, batch 190315): 131 mg/mL | solubility at 96 h ([2]; potassium phosphate buffer pH 6.8, 37 °C, pH 6.8, aqueous buffer, thermodynamic from solid, pH 6.8, 37 °C, mean of three batches): 130 mg/mL | solubility at 96 h ([2]; potassium phosphate buffer pH 7.5, 25 °C, pH 7.5, aqueous buffer, thermodynamic from solid, pH 7.5, 25 °C, batch 170215): 58.9 mg/mL | solubility at 96 h ([2]; potassium phosphate buffer pH 7.5, 25 °C, pH 7.5, aqueous buffer, thermodynamic from solid, pH 7.5, 25 °C, batch 180215): 59.2 mg/mL | solubility at 96 h ([2]; potassium phosphate buffer pH 7.5, 25 °C, pH 7.5, aqueous buffer, thermodynamic from solid, pH 7.5, 25 °C, batch 190315): 59.1 mg/mL | solubility at 96 h ([2]; potassium phosphate buffer pH 7.5, 25 °C, pH 7.5, aqueous buffer, thermodynamic from solid, pH 7.5, 25 °C, mean of three batches): 59.1 mg/mL | solubility at 96 h ([2]; potassium phosphate buffer pH 7.5, 37 °C, pH 7.5, aqueous buffer, thermodynamic from solid, pH 7.5, 37 °C, batch 170215): 127 mg/mL | solubility at 96 h ([2]; potassium phosphate buffer pH 7.5, 37 °C, pH 7.5, aqueous buffer, thermodynamic from solid, pH 7.5, 37 °C, batch 180215): 130 mg/mL | solubility at 96 h ([2]; potassium phosphate buffer pH 7.5, 37 °C, pH 7.5, aqueous buffer, thermodynamic from solid, pH 7.5, 37 °C, batch 190315): 126 mg/mL | solubility at 96 h ([2]; potassium phosphate buffer pH 7.5, 37 °C, pH 7.5, aqueous buffer, thermodynamic from solid, pH 7.5, 37 °C, mean of three batches): 128 mg/mL | solubility at 96 h ([2]; sodium acetate/acetic acid buffer pH 4.5, 25 °C, pH 4.5, aqueous buffer, thermodynamic from solid, pH 4.5, 25 °C, batch 170215): 59.7 mg/mL | solubility at 96 h ([2]; sodium acetate/acetic acid buffer pH 4.5, 25 °C, pH 4.5, aqueous buffer, thermodynamic from solid, pH 4.5, 25 °C, batch 180215): 59.3 mg/mL | solubility at 96 h ([2]; sodium acetate/acetic acid buffer pH 4.5, 25 °C, pH 4.5, aqueous buffer, thermodynamic from solid, pH 4.5, 25 °C, batch 190315): 60.9 mg/mL | solubility at 96 h ([2]; sodium acetate/acetic acid buffer pH 4.5, 25 °C, pH 4.5, aqueous buffer, thermodynamic from solid, pH 4.5, 25 °C, mean of three batches): 60 mg/mL | solubility at 96 h ([2]; sodium acetate/acetic acid buffer pH 4.5, 37 °C, pH 4.5, aqueous buffer, thermodynamic from solid, pH 4.5, 37 °C, batch 170215): 132 mg/mL | solubility at 96 h ([2]; sodium acetate/acetic acid buffer pH 4.5, 37 °C, pH 4.5, aqueous buffer, thermodynamic from solid, pH 4.5, 37 °C, batch 180215): 133 mg/mL | solubility at 96 h ([2]; sodium acetate/acetic acid buffer pH 4.5, 37 °C, pH 4.5, aqueous buffer, thermodynamic from solid, pH 4.5, 37 °C, batch 190315): 136 mg/mL | solubility at 96 h ([2]; sodium acetate/acetic acid buffer pH 4.5, 37 °C, pH 4.5, aqueous buffer, thermodynamic from solid, pH 4.5, 37 °C, mean of three batches): 134 mg/mL | Papp A→B at 120 min ([1]; Caco-2, pH 7.4, Caco-2, donor concentrations 10–100 μM, KRB pH 7.4, read-out: Permeability coefficient (Papp), apical to basolateral): 0.2 to 0.3 ×10⁻⁶ cm/s | Evidence for active transport (Caco-2 cell monolayers): no evidence for active transport | Permeability classification (Caco-2 cell monolayers): low in vitro permeability | TEER relative to TEER measured in medium without test substance (Caco-2 cells; up to 100 μM, after 2 h of incubation): about 100% | P-gp-mediated transport of the substance (P-glycoprotein (P-gp); bi-directional transport 10 μM with/without cyclosporin A 12 μmol·L^−1): not indicative for a P-gp-mediated transport | Fold lower permeation coefficient in ab direction with cyclosporin A compared to without CsA (P-glycoprotein (P-gp); human, Caco-2, 120 min, 10 μM, pH 7.4): more than 3 times

CC(C)NCC(O)COc1cccc2ccccc12 (stereo not shown) [propranolol, reference compound]
Papp A→B at 120 min [1, 3]: 19.6 ×10⁻⁶ cm/s

COC(=O)c1ccccc1-c1c2ccc(=N)cc-2oc2cc(N)ccc12 [rhodamine 123, reference compound]
efflux ratio at 120 min ([1]; pH 7.4, Caco-2, efflux ratio, monolayer qualification marker, read-out: Papp (BA)/Papp (AB)): 17.1 | Papp B→A at 120 min ([1]; pH 7.4, Caco-2, monolayer qualification marker): 4.5 ×10⁻⁶ cm/s

CCCCCCCCCCCCOS(=O)(=O)[O-].[Na+] [sodium dodecyl sulfate]
TEER after recovery (Caco-2 cells; positive control, growth medium within 24 h): 118 Ω·cm^2 | TEER after exposure (Caco-2 cells; positive control, immediate and remaining reduction): < 108 Ω·cm^2
